Reference: patent publication US10526316B2, “Quinoxaline and pyridopyrazine derivatives as PI3Kβ inhibitors” (Janssen Pharmaceutica NV, priority 2015, dated 2020)
Where two headings read alike, the source gives them in different places.

Experiments:
PI3Kδ = molecular target: T1, PI3Kδ (Homo sapiens, UniProt O00329); assay: Enzyme binding assay (KINOMEscan, DiscoveRx); settings: PIK3Cδ_h
T1 construct: purchased DiscoveRx Corporation, San Diego (contract service, KINOMEscan)
T1 sequence (O00329 1-1044): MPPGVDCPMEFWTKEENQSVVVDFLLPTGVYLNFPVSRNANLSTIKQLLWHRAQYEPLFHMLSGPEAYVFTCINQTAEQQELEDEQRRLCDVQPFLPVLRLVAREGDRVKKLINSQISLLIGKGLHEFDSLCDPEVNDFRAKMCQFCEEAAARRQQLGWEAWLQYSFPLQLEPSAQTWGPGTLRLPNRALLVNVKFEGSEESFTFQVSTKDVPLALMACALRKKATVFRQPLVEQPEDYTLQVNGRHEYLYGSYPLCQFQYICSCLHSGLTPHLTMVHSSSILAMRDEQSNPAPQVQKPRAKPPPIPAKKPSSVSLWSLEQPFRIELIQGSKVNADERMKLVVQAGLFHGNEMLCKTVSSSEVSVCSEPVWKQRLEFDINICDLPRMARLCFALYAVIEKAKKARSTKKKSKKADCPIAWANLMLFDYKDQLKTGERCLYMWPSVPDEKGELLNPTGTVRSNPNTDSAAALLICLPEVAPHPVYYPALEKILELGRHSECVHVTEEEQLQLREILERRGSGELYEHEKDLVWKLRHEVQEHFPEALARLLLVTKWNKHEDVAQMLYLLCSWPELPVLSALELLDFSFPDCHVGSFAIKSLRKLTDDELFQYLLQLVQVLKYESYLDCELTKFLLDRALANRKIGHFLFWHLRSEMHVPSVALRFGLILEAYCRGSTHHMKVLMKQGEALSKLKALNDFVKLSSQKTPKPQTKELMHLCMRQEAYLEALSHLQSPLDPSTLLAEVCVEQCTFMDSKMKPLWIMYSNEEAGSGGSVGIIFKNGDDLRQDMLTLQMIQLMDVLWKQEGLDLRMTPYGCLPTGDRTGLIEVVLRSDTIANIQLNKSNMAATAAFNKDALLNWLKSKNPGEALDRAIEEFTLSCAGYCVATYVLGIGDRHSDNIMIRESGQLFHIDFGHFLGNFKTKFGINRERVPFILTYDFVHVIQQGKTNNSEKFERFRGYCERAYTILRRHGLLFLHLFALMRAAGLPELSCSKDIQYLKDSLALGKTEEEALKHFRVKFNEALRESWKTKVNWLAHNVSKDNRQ
Procedure, shortened: (§1)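 Uses KINOMEscan technology to determine binding affinity toward the kinase enzymes.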

kinase enzymes [1] = molecular target: T2, kinase enzymes (Homo sapiens, UniProt P42345); assay: Enzyme binding assay (KINOMEscan, DiscoveRx), further kinases of Table A; settings: MTOR_h
T2 construct: purchased DiscoveRx Corporation, San Diego (contract service, KINOMEscan)
Procedure, shortened: as §1

kinase enzymes [2] = molecular target: T3, kinase enzymes (Homo sapiens, UniProt P42336); assay: as above; settings: PIK3Cα_h
T3 construct: purchased DiscoveRx Corporation, San Diego (contract service, KINOMEscan)
Procedure, shortened: as §1

kinase enzymes [3] = molecular target: T4, kinase enzymes (Homo sapiens, UniProt P48736); assay: as above; settings: PIK3Cγ_h
T4 construct: purchased DiscoveRx Corporation, San Diego (contract service, KINOMEscan)
Procedure, shortened: as §1

PI3Kβ = molecular target: T5, PI3Kβ (Homo sapiens, UniProt P42338); assay: Enzyme binding assay (KINOMEscan, DiscoveRx); settings: PIK3Cβ_h, read-out: Kd PIK3Cβ_h
T5 construct: purchased DiscoveRx Corporation, San Diego (contract service, KINOMEscan)
Procedure, shortened: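 Using the KINOMEscan format, the enzyme binding affinity of each compound was determined. Each value is the inhibitor binding constant, Kd (nM).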

[4] = tested on: Akt phosphorylated at Thr308 in PC-3 cells; assay: Cellular assay: phosphorylation of Akt at Thr308 in PC-3 cells (MSD ELISA); format: cell-based; settings: PC-3 cells, 60 min compound incubation, MSD ELISA, read-out: IC50 pAkt_Thr308
Procedure, shortened: (§2)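 Electrochemiluminescent sandwich ELISA read-out: phospho-specific capture (Ser473 or Thr308), Sulfo-tag anti-total Akt detection, signal proportional to phospho-Akt. Cells treated 60 min at 37° C with compound, DMSO 0.3%. IC50 fitted from five concentrations.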

[5] = tested on: Akt phosphorylated at Ser473 in PC-3 cells; assay: Cellular assay: phosphorylation of Akt at Ser473 in PC-3 cells (MSD ELISA); format: cell-based; settings: PC-3 cells, 60 min compound incubation, MSD ELISA, read-out: IC50 pAkt_S473
Procedure, shortened: as §2

T4 sequence (P48736 whole entry): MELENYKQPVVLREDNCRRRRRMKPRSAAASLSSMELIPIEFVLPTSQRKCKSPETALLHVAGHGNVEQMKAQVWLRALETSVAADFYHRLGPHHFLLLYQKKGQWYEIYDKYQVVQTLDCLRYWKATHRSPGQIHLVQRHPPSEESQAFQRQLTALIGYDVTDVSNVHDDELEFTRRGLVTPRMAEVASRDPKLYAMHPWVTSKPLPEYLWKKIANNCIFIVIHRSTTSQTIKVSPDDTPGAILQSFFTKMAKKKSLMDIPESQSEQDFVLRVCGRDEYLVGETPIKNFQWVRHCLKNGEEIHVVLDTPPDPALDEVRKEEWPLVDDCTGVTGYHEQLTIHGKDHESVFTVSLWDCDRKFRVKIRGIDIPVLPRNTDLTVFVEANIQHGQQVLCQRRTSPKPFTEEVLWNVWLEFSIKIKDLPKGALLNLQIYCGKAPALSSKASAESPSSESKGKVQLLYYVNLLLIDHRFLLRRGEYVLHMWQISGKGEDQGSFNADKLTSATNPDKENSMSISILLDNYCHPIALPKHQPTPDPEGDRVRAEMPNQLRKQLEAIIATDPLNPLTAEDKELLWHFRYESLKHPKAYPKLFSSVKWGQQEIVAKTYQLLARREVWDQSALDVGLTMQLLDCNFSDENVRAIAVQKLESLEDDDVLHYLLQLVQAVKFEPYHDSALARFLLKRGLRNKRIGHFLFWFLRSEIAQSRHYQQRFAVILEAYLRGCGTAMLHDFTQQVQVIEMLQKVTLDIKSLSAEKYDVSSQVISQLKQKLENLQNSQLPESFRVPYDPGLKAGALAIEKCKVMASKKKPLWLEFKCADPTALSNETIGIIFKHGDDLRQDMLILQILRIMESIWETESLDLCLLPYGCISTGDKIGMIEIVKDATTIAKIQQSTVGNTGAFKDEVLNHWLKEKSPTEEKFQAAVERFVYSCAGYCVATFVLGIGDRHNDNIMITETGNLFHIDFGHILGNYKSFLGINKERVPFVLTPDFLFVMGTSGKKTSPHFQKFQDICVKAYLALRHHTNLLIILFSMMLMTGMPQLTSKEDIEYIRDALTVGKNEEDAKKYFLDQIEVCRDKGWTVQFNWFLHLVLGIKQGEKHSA
T5 sequence (P42338 whole entry): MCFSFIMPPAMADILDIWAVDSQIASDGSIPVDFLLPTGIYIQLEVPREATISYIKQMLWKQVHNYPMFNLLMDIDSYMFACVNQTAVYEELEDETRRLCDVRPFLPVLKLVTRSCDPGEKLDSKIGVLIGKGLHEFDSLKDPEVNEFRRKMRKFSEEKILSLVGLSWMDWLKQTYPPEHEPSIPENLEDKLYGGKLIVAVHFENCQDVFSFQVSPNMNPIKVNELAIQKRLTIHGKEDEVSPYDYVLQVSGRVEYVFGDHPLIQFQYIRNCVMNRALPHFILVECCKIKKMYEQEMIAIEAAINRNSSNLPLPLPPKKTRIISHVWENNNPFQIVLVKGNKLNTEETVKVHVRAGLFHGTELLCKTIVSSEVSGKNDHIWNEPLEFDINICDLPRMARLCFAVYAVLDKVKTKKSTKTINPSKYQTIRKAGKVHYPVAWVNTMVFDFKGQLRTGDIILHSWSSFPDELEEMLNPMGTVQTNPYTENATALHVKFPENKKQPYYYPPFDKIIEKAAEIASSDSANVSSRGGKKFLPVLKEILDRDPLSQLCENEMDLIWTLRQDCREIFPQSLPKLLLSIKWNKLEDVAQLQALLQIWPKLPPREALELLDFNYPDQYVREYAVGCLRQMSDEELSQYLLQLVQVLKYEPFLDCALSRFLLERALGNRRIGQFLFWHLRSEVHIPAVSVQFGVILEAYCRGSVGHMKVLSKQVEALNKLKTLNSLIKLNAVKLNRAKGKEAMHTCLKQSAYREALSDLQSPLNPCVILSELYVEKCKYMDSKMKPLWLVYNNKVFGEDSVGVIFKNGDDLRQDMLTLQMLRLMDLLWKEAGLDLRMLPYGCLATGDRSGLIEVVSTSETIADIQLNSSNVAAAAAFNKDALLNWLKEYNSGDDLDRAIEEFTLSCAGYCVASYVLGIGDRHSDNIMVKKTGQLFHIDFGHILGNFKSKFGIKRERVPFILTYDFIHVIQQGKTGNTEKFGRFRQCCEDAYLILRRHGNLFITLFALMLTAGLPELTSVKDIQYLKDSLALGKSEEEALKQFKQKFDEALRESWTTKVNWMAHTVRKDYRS
T3 sequence (P42336 whole entry): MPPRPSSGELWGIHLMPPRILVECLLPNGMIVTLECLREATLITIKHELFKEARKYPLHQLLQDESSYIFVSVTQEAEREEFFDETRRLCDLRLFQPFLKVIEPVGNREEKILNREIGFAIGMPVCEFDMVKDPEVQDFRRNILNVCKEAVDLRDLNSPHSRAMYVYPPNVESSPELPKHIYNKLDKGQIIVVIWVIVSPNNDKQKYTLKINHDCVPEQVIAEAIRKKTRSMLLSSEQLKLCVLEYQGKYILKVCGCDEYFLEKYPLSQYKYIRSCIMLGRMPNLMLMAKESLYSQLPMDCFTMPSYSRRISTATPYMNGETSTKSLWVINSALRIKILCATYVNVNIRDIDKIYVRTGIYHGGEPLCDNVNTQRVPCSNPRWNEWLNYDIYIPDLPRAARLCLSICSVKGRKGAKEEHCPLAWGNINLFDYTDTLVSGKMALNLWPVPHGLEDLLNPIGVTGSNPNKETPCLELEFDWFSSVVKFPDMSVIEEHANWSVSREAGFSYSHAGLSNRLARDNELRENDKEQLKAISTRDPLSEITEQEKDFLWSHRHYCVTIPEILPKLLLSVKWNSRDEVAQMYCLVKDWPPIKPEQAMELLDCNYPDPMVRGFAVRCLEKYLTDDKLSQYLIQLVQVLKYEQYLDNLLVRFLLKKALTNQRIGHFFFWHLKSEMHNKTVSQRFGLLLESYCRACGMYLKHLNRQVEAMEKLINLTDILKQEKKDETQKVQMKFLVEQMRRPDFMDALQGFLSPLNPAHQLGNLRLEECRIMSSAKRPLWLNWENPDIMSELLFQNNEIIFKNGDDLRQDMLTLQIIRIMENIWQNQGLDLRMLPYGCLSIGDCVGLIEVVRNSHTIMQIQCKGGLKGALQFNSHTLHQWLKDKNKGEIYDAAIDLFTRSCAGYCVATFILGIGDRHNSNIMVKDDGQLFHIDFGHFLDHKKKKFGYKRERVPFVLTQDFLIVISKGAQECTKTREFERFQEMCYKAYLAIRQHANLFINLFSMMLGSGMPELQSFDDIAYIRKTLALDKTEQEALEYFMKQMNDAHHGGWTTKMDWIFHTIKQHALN

| SMILES | Kd (PI3Kδ) [nM] | Kd (kinase enzymes [1]) [nM] | Kd (kinase enzymes [2]) [nM] | Kd (kinase enzymes [3]) [nM] | Kd (PI3Kβ) [nM] | melting point [°C] | IC50 [4] [nM] | IC50 [5] [nM] | IC50 ([4]; Homo sapiens, PC-3, 1 h) [nM] | IC50 ([5]; Homo sapiens, PC-3, 1 h) [nM] |
| --- | --- | --- | --- | --- | --- | --- | --- | --- | --- | --- |
| CC(Nc1cc(F)cc(F)c1)c1cc(CN2CCn3nccc3C2)cc2ncc(N3CCOCC3)nc12 (single isomer, unassigned) [Compound 222] | > 30200 | > 30200 | > 30200 | > 30200 | 759 | 163 | > 513 | > 513 |  |  |
| CC(Nc1cc(F)cc(F)c1)c1cc(C=NO)cc2ncc(N3CCOCC3)nc12 (single isomer, unassigned) [Compound 225] | 537 | > 30200 | 4680 | 2510 | 6 | 80 |  |  | 87 | 102 |
| CC(C)NCCNC(=O)c1cc(C(C)Nc2cccc(F)c2)c2nc(N3CCOCC3)cnc2c1 (single isomer, unassigned) [Compound 227] | 339 | > 30200 | 1780 | 3800 | 1 | 80 | 20 | 27 |  |  |
| CC(Nc1cc(F)cc(F)c1)c1cc(C(=O)N2CCNC(C(F)(F)F)C2)cc2ncc(N3CCOCC3)nc12 (single isomer, unassigned) [Compound 237a] | 204 | > 30200 | 105 | 5010 | 1 | 120 | 4 | 6 |  |  |
| CC(Nc1cc(F)cc(F)c1)c1cc(C(=O)NS(N)(=O)=O)cc2ncc(N3CCOCC3)nc12 (single isomer, unassigned) [Compound 243a] | 69 | 1480 | 39 | 100 | 0.5 | 160 |  |  | > 513 | > 513 |
| CC(Nc1cc(F)cc(F)c1)c1cc(C(=O)NS(N)(=O)=O)cc2ncc(N3CCOCC3)nc12 (single isomer, unassigned) [Compound 243b] | 3390 | 1350 | 1660 | 1950 | 14 | 200 | > 513 | > 513 |  |  |
| COC(=O)c1cc(C2CCCN2c2cc(F)cc(F)c2)c2nc(N3CCOCC3)cnc2c1 (single isomer, unassigned) [Compound 249] | 955 | > 30200 | 794 | 2400 | 4 | 211 | 52 | 71 |  |  |
| O=C(O)c1cc(C2CCCN2c2cc(F)cc(F)c2)c2nc(N3CCOCC3)cnc2c1 (single isomer, unassigned) [Compound 251] | 23 | 676 | 8 | 65 | 0.3 | 299 |  |  | 23 | 52 |
| CC(Nc1ccc(F)c(F)c1)c1cc(C(=O)NCCO)cc2ncc(N3CCOCC3)nc12 (single isomer, unassigned) [Compound 279a] | 513 | 21400 | 2190 | 5620 | 7 | 80 | 41 |  |  | 58 |
| CC(Nc1ccc(F)c(F)c1)c1cc(C(=O)NCCCO)cc2ncc(N3CCOCC3)nc12 (single isomer, unassigned) [Compound 280a] | 562 | 20900 | 1700 | 12000 | 12 | 80 | 45 | 87 |  |  |
| CC(Nc1ccc(F)c(F)c1)c1cc(C(=O)NCCN(C)C)cc2ncc(N3CCOCC3)nc12 (single isomer, unassigned) [Compound 281a] | 72 | 23400 | 1510 | 4070 | 0.3 | 102 | 3 | 5 |  |  |
| CC(C)NCCNC(=O)c1cc(C(C)Nc2cc(F)c(F)c(F)c2)c2nc(N3CCOCC3)cnc2c1 (single isomer, unassigned) [Compound 283a] | 1550 | > 30200 | 12000 | 19100 | 7 | 173 |  |  | 52 | 81 |
| CC(Nc1cc(F)c(F)c(F)c1)c1cc(C(=O)NC[C@@H](C)O)cc2ncc(N3CCOCC3)nc12 (single isomer, unassigned) [Compound 284a] | 939 | 19100 | 2080 | 8140 | 10 | 113 | 61 | 90 |  |  |
| CC(Nc1cc(F)c(F)c(F)c1)c1cc(C(=O)NC[C@@H](C)O)cc2ncc(N3CCOCC3)nc12 (single isomer, unassigned) [Compound 284b] | > 30200 | > 30200 | > 30200 | 5070 | 2150 | 112 | > 513 | > 513 |  |  |
| CC(Nc1ccc(F)c(F)c1)c1cc(C(=O)N2CCN3CCC[C@H]3C2)cc2ncc(N3CCOCC3)nc12 (single isomer, unassigned) [Compound 287b] | 2950 | > 30200 | 9330 | > 30200 | 27 | 95 |  |  | 417 | > 513 |
| CC(Nc1cc(F)c(F)c(F)c1)c1cc(C(=O)NCC(C)(C)O)cc2ncc(N3CCOCC3)nc12 (single isomer, unassigned) [Compound 292a] | 603 | 32400 | 2820 | 21900 | 17 | 110 | 98 | 155 |  |  |
| Cc1ccc(NC(C)c2cc(C(=O)NCCO)cc3ncc(N4CCOCC4)nc23)cc1F (single isomer, unassigned) [Compound 295b] | > 30200 | > 30200 | > 30200 | 4570 | 19500 | 120 |  |  | > 513 | > 513 |
| CC(Nc1ccc(F)c(F)c1)c1cc(C(=O)N2CC[C@@H](O)C2)cc2ncc(N3CCOCC3)nc12 (single isomer, unassigned) [Compound 300a] | 191 | > 30200 | 1480 | 5490 | 2 | 140 |  |  | 19 | 29 |
| CC(Nc1ccc(F)c(F)c1)c1cc(C(=O)N2CCC[C@H](O)C2)cc2ncc(N3CCOCC3)nc12 (single isomer, unassigned) [Compound 302a] | > 30200 | > 30200 | > 30200 | > 30200 | 1320 | 135 |  |  | > 513 | > 513 |
| CNCCOCCN(C)C(=O)c1cc(C(C)Nc2cc(F)c(F)c(F)c2)c2nc(N3CCOCC3)cnc2c1 (single isomer, unassigned) [Compound 315a] | > 30200 | > 30200 | > 30200 | > 30200 | 2240 | 86 | > 20.4 |  |  | 195 |
